structure (smiles),measurement,setting,value
Cc1ncc([N+](=O)[O-])n1CCO,solubility (mole fraction),"in chloroform, 293.15 K",0.00128
same,solubility (mole fraction),"in chloroform, 297.55 K",0.0016
same,solubility (mole fraction),"in chloroform, 302.55 K",0.00226
same,solubility (mole fraction),"in chloroform, 307.55 K",0.00288
same,solubility (mole fraction),"in chloroform, 312.35 K",0.0036
same,solubility (mole fraction),"in chloroform, 317.85 K",0.00418
same,solubility (mole fraction),"in ethanol, 293.15 K",0.00433
same,solubility (mole fraction),"in ethanol, 297.55 K",0.00596
same,solubility (mole fraction),"in ethanol, 302.55 K",0.00641
same,solubility (mole fraction),"in ethanol, 307.55 K",0.00763
same,solubility (mole fraction),"in ethanol, 312.35 K",0.00978
same,solubility (mole fraction),"in ethanol, 317.85 K",0.0121
same,solubility (mole fraction),"in ethanol, 322.35 K",0.0145
same,solubility (mole fraction),"in ethyl acetate, 293.15 K",0.00299
same,solubility (mole fraction),"in ethyl acetate, 297.55 K",0.00395
same,solubility (mole fraction),"in ethyl acetate, 302.55 K",0.00495
same,solubility (mole fraction),"in ethyl acetate, 307.55 K",0.00605
same,solubility (mole fraction),"in ethyl acetate, 312.35 K",0.00713
same,solubility (mole fraction),"in ethyl acetate, 317.85 K",0.00887
same,solubility (mole fraction),"in ethyl acetate, 322.35 K",0.0121
same,solubility (mole fraction),"in isopropanol, 293.15 K",0.00396
same,solubility (mole fraction),"in isopropanol, 297.55 K",0.00462
same,solubility (mole fraction),"in isopropanol, 302.55 K",0.00559
same,solubility (mole fraction),"in isopropanol, 307.55 K",0.00615
same,solubility (mole fraction),"in isopropanol, 312.35 K",0.00794
same,solubility (mole fraction),"in isopropanol, 317.85 K",0.0102
same,solubility (mole fraction),"in isopropanol, 322.35 K",0.0125
same,solubility (mole fraction),"in methanol, 293.15 K",0.00641
same,solubility (mole fraction),"in methanol, 297.55 K",0.0076
same,solubility (mole fraction),"in methanol, 302.55 K",0.00925
same,solubility (mole fraction),"in methanol, 307.55 K",0.0112
same,solubility (mole fraction),"in methanol, 312.35 K",0.0138
same,solubility (mole fraction),"in methanol, 317.85 K",0.017
same,solubility (mole fraction),"in methanol, 322.35 K",0.0201
same,solubility (mole fraction),"in n-butanol, 293.15 K",0.00533
same,solubility (mole fraction),"in n-butanol, 297.55 K",0.00576
same,solubility (mole fraction),"in n-butanol, 302.55 K",0.00692
same,solubility (mole fraction),"in n-butanol, 307.55 K",0.00914
same,solubility (mole fraction),"in n-butanol, 312.35 K",0.0111
same,solubility (mole fraction),"in n-butanol, 317.85 K",0.0132
same,solubility (mole fraction),"in n-butanol, 322.35 K",0.0163
same,solubility (mole fraction),"in water, 293.15 K",0.000872
same,solubility (mole fraction),"in water, 298.45 K",0.00104
same,solubility (mole fraction),"in water, 306.95 K",0.00146
same,solubility (mole fraction),"in water, 308.65 K",0.00152
same,solubility (mole fraction),"in water, 313.15 K",0.00181
same,solubility (mole fraction),"in water, 318.05 K",0.00216
same,solubility (mole fraction),"in water, 322.95 K",0.00265

# — BigSolDB 2.1
